# Measurements from patent US20050130906A1, “Amelioration of macular degeneration and other ophthalmic diseases” (priority 2003, published 2005).
# Tests used:
# cataract = conditions: Zigler et al., U.S. Pat. No. 6,001,853; cited from earlier work
# lens epithelial cells = conditions: Mitchell et al. 1991; Krishna et al. 1991; cited from earlier work
# [1] = tested on: blue light-illuminated A2E-laden RPE (ARPE-19 cells); test: Protection against A2E-mediated blue light damage (MTT assay and two-color fluorescence cell death assay); format: cell-based
# Description: The ability of Tempol-H to protect against A2E-mediated blue light damage was examined.
# Materials and Methods: ARPE-19 cells that have accumulated A2E in culture were exposed to 430±20 nm light delivered from a halogen source. This wavelength of light is relevant since (i) the excitation maximum of A2E is approximately 430 nm, and (ii) light of this wavelength reaches the RPE in vivo while light of wavelengths longer than 400 nm are not absorbed by the cornea and lens. Cell death in blue light-illuminated A2E-laden RPE was compared with and without pre-treatment (24 hours) with Tempol-H. The loss of cell viability was quantified by: • 1. A calorimetric microtiter assay based on ability of healthy metabolically active cells to cleave the yellow tetrazolium salt MTT to purple formazan crystals. Cell viability was assessed 24 hours after blue light illumination. Triplicate wells were assayed in each of 2 experiments.
# 2. Two-color fluorescence assay in which the nuclei of all dead cells appear red due to staining by a membrane-impermeant dye (Dead Red nuclei acid stain, Molecular Probes) with the nuclei of all cells stained blue with DAPI. Cell viability was assessed 8 hours after blue light illumination. Replicates were assayed by counting cells within 5 microscopic fields within the area of illumination in each well and 3 wells were assayed per experiment. Data are based on 3 experiments.
# [2] = tested on: retinal S-antigen-induced experimental autoimmune uveoretinitis (EAU); conditions: rat model, after systemic injection; Zamir et al. 1999; cited from earlier work
SMILES,anti-cataractogenic activity compared with the corresponding nitroxide (cataract),protection of lens epithelial cells from oxidative damage (lens epithelial cells),"protection of blue light-illuminated A2E-laden RPE cells ([1]; 1 mM, FIG. 2)","protection against the death of A2E-laden RPE ([1]; blue light 430±20 nm, 24 hours pre-treatment, FIG. 1 and FIG. 2)","protection of blue light illuminated A2E-laden RPE cells ([1]; various concentrations, FIG. 1)",severity of EAU [2]
CC1(C)CC(O)CC(C)(C)N1O [Tempol-H],better anti-cataractogenic composition than the corresponding nitroxide,afforded no such protection,protection,dose-dependent protection,protect,–
"CC1(C)CC(O)CC(C)(C)N1[O] [tempol, 4-hydroxy-2,2,6,6,-tetramethylpiperidine-1-N-oxyl]",–,–,–,–,–,reduced the severity
